What was measured:
[1] = target: T1, Prostaglandin G/H synthase 2 (Ovis aries, UniProt P79208); assay: Inhibition of sheep COX2-mediated prostaglandin biosynthesis using [1-14C]arachidonic acid
T1 sequence (P79208 whole entry): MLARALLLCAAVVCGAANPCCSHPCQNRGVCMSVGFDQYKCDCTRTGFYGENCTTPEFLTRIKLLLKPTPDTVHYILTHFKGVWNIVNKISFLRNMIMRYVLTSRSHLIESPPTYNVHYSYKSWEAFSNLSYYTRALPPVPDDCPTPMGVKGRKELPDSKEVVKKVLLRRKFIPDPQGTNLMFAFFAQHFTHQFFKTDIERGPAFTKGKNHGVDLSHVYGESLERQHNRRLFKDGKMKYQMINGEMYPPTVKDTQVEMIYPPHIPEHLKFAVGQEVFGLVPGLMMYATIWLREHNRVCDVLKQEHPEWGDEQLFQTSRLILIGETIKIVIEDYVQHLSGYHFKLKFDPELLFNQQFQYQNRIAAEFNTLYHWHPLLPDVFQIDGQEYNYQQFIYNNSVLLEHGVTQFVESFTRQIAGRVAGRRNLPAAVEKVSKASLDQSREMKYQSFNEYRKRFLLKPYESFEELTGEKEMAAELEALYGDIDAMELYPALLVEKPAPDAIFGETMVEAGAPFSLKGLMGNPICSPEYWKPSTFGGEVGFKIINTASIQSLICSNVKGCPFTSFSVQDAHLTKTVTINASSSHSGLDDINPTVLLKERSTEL

[2] = target: T2, Prostaglandin G/H synthase 1 (Bos taurus, UniProt O62664); assay: Inhibition of bovine COX1-mediated prostaglandin biosynthesis using [1-14C]arachidonic acid
T2 sequence (O62664 whole entry): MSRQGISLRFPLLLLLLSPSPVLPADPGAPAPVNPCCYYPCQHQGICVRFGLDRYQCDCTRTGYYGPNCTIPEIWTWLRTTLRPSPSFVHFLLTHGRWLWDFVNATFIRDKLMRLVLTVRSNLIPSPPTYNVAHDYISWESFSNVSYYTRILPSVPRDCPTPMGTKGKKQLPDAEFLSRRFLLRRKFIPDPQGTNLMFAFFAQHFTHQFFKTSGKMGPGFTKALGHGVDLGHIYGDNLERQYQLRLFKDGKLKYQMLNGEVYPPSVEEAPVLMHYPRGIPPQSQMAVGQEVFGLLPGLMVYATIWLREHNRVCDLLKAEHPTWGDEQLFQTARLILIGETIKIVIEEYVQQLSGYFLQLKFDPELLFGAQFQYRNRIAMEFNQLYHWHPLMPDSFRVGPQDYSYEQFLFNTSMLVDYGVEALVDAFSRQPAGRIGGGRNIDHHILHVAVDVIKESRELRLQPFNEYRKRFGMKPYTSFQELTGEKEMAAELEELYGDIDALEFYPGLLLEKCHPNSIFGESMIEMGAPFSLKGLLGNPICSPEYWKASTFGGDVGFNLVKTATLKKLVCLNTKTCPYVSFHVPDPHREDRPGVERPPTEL

[3] = Selectivity ratio for IC50 for sheep COX2 to IC50 for […]

Structure (SMILES) | IC50 [1] [µM] | IC50 [2] [µM] | Ratio IC50 [3]
CC/C=C\C/C=C\C/C=C\C/C=C\CCSCC(=O)O | 160 | 84 | 1.9
CC/C=C\C/C=C\C/C=C\C/C=C\CCOCC(=O)O | > 500 | > 500 | 
CC/C=C\C/C=C\C/C=C\CC/C=C/COCC(=O)O | > 500 | > 500 | 
CC/C=C\C/C=C\C/C=C\C/C=C\CC/C=C/COCC(=O)O | 180 | 50 | 3.6
CC/C=C\C/C=C\C/C=C\CC/C=C/CSCCCC(=O)O | 120 | 81 | 1.4
CCCCCCCCCCCCCC(=O)O [MYRISTIC ACID] | > 500 | > 500 | 
CCCCCCCC/C=C\CCCCCCCC(=O)O [OLEIC ACID] | > 500 | > 500 | 
CCCCCCCCCCCCCCCC(=O)O [PALMITIC ACID] | > 500 | > 500 | 
CCCCCCCCCCCCCCC(=O)O [PENTADECANOIC ACID] | > 500 | > 500 | 
CCCCCCCCCCCCCCCCCC(=O)O [STEARIC ACID] | > 500 | > 500 | 

These reach a lower IC50 [1]. Values come first.

IC50 [1] [µM] | IC50 [2] [µM] | Ratio IC50 [3] | Structure (SMILES)
3.9 | 26 | 0.2 | CC/C=C\C/C=C\C/C=C\C/C=C\CCSCCCC(=O)O
9.8 | 15 | 0.7 | CC/C=C\C/C=C\C/C=C\C/C=C\C/C=C\C/C=C\CCC(=O)O [DOCONEXENT]
7.1 | 13 | 0.5 | CC/C=C\C/C=C\C/C=C\C/C=C\C/C=C\CCCC(=O)O [ICOSAPENT]
94 | 170 | 0.6 | CCCCC/C=C\C/C=C\CCCCCCCC(=O)O [LINOLEIC ACID]
12 | 93 | 0.1 | CC/C=C\C/C=C\C/C=C\CCCCCCCC(=O)O [LINOLENIC ACID]

Source: ChEMBL document CHEMBL1150860, “Cox-2 inhibitory effects of naturally occurring and modified fatty acids” (J Nat Prod, 2001)
